Data on one molecule can be found in PMC5045383 (Oncotarget, 2016).

SMILES strings stand for the structures.

The target of experiment [1] is FLT3-ITD (ITD+kinase domain). In words: ADP-Glo biochemical assay. Particulars: ATP final 50 μM. How it is done: FLT3 wt/FLT3-ITD/FLT3-D835Y cytoplasmic fragment with his tag was cloned into baculovirus expression vector pFASTHT-A. The recombinant bacmid was transfected into SF9 by Cellfectin (Invitrogen). High titer viral stocks were obtained by two rounds of amplification of the virus. The protein was expressed by infecting SF9 cells with high titer viral stocks for 48 h. Cells were harvested and re-suspended in lysis buffer (50 mM Tris pH 7.5, 150 mM NaCl, and 1 mM PMSF). The cells were lysed by ultra sonication and the cell debris was removed by ultracentrifugation. The supernatant was incubated with Ni-affinity beads (GE). The beads were then washed by lysis buffer containing 50–250 mM imidazole. The elute was loaded to superdex 75. The protein was concentrated to 1 mg/ml and aliquots were frozen and stored at −80°C. The protein was used for ADP-Glo™ kinase assay.
The reaction in each tube was started immediately by adding ATP and kept going for an hour under 37°C. After the tube cooled for 5 minutes at room temperature, 5 μL solvent reactions were carried out in a 384-well plate. […] At the end, 10 μL of kinase detection reagent was added into the well and incubated for 30 minutes to produce a luminescence signal. Luminescence signal was measured with an automated plate reader (Perkin-Elmer Envision) and each measurement was performed in triplicate.

For the next experiment, the system named is PF-382 (FLT3-wt). Briefly: cells. It counts as cell-based. The following applies: 72 hours. The protocol: Cells were grown in 96-well culture plates (3000/well). […] Cell proliferation was determined after 72 hours drug treatment. […] Cell viability was measured with the CellTiter–Glo assay (Promega, USA), according to the manufacturer's instructions, and luminescence was measured in a multi-label reader (Envision, PerkinElmer, USA). […] GI50 values were calculated using Prism 5.0 (GraphPad Software, San Diego, CA).

The target of a further experiment is FLT3 wt. Further details: method as in PMID 22037378. Particulars: cited from earlier work.
The test system of the next experiment is BaF3-FLT3-ITD. In words: Anti-proliferation, BaF3 isogenic cell lines. The format is cell-based. The protocol: (§1) Cells were grown in 96-well culture plates (3000/well). […] Cell proliferation was determined after 72 hours drug treatment. […] Cell viability was measured with the CellTiter–Glo assay (Promega, USA), according to the manufacturer's instructions, and luminescence was measured in a multi-label reader (Envision, PerkinElmer, USA). Data were normalized to control groups (DMSO) and represented by the mean of three independent measurements with standard error < 20%. GI50 values were calculated using Prism 5.0 (GraphPad Software, San Diego, CA).
(§2) Retroviral constructs for BaF3-FLT3 mutants were made based on the pMSCVpuro (Clontech) backbone. For TEL-FLT3 vector, the first 1 kb of human TEL gene with an artificial myristoylation sequence ([…]) was cloned into pMSCVpuro retroviral vector, followed by a 3xFLAG tag sequence and a stop codon. Then the kinase domain coding sequence of FLT3 was inserted in-frame between TEL and 3× FLAG sequences. For full-length expression vectors, the coding sequences of FLT3 variants were directly cloned in pMSCVpuro vector with a 3X FLAG tag at the C-terminal end. All mutagenesis studies were performed using the QuikChange Site-Directed Mutagenesis Kit (Stratagene) following the manufacturer's instructions. Retrovirus was packaged in HEK293T cells by transfecting FLT3-containing MSCV vectors together with two helper plasmids, virus supernatants were harvested 48 hours after transfection and filtered before infection. Then BaF3 cells were infected with harvested virus supernatants using spinoculation protocol and stable cell lines were obtained by puromycin selection for 48 hours. The IL-3 concentrations in the culture medium were gradually withdrawn until cells were able to grow in the absence of IL-3.

The subject of the next experiment is BaF3-FLT3-ITD-F691L. Briefly: Anti-proliferation, BaF3 isogenic cell lines. It counts as cell-based. How it is done: as §1, §2
The next experiment has as its system BaF3-FLT3-D835Y. In words: Anti-proliferation, BaF3 isogenic cell lines. It counts as cell-based. The protocol:
as §1, §2

The next experiment has as its system BaF3-TEL-FLT3-wt. In words: Anti-proliferation, BaF3 isogenic cell lines. It counts as cell-based. How it is done: as §1, §2
The test system of experiment [2] is FLT3-ITD-positive AML patient primary cells. Briefly: Anti-proliferation, AML patient primary cells. It counts as cell-based, human. The following applies: at 1 μM; compared to normal bone marrow cells. The protocol:
Mononuclear cells were isolated from samples from AML patients identified as harboring mutant FLT3. Cells were tested in liquid culture (DMEM, supplemented with 20% FBS) in the presence of different concentrations of inhibitors. All blood and bone marrow samples from AML patients were obtained under approval of the Dana Farber Cancer Institute Institutional Review Board. The ethics committees approved the consent procedure. All studies were performed with ACUC approved protocols at DFCI.

In a further experiment the test system is MOLM-14 xenograft tumor. In words: MOLM-14 xenograft tumor model. It counts as in vivo, Balb/c-nu mice. Particulars: daily oral gavage, MOLM14 xenograft. The text has this: Five weeks old female Balb/c-nu mice were purchased from the Shanghai Experimental Center, Chinese Science Academy (Shanghai, China). All animals were housed in a specific pathogen-free facility and used according to the animal care regulations of Hefei Institutes of Physical Science Chinese Academy of Sciences. Prior to implantation, cells were harvested during exponential growth. 10 million MOLM-14 cells in 1640 were formulated as a 1:1 mixture with Matrigel (BD Biosciences) and injected into the subcutaneous space on the right flank of Balb/c-nu mice. Daily oral administration was initiated when MOLM-14 tumors had reached a size of 200 to 400 mm^3. Animals were then randomized into treatment groups of 10 mice each for efficacy studies. […] Tumor growth was measured daily after A674563 treatment. Tumor volumes were calculated as follows: tumor volume (mm^3) = [(W^2 × L)/2] in which width (W) is defined as the smaller of the two measurements and length (L) is defined as the larger of the two measurements.

A further experiment deals with FLT3-ITD kinase. Further details: method as in PMID 22037378. The following applies: cited from earlier work.
Experiment [3] relates to FLT3-ITD mediated signaling in MOLM14 and MV4-11 cell lines. In words: Signaling pathway effect examination (immunoblot). The format is cell-based, human. Particulars: intact FLT3-ITD-positive cell lines, 4 hours. The text has this:
Cells were then washed in PBS and lysed in cell lysis buffer. FLT3, Phospho-FLT3 (Tyr589/591), AKT, Phospho-AKT Ser473, Phospho-AKT Thr308, GSK-3β, Phospho-GSK-3β (Ser9), Phospho-FoxO1 (Thr24), FoxO1, PRAS40, Phospho-PRAS40 (Thr246), STAT5, Phospho-STAT5 (Tyr694), NF-ΚB-P65, Phospho-NF-ΚB-P65 (Ser536), P70S6K, Phospho-P70S6K Thr389, 4EBP1, Phospho-4EBP1 (Thr37/46), ERK, Phospho-p44/42MAPK (Erk1/2) (Thr202/Tyr204), C-Myc and GAPDH antibodies (Cell Signaling Technology) were used for immunoblotting.

With `Cc1[nH]nc2ccc(-c3cncc(OC[C@@H](N)Cc4ccccc4)c3)cc12` [A674563], half-maximal inhibition in experiment [1] (IC50) required 0.134 µM. Further, the 50% growth inhibitory concentration (GI50) in the experiment on PF-382 (FLT3-wt) was 2.7 µM; with BaF3-FLT3-ITD, 0.088 µM; in the experiment with BaF3-FLT3-ITD-F691L, 0.43 µM; with BaF3-FLT3-D835Y, 0.045 µM; in the experiment with BaF3-TEL-FLT3-wt it was 1 µM. Further, the dissociation constant (Kd) at FLT3 wt is 0.54 µM; at FLT3-ITD kinase, 0.083 µM. The “anti-proliferation activity in patient primary cells” value in experiment [2] is “potent anti-proliferation activity”. In addition, the figures for the “tumor growth inhibition (TGI)” value in the experiment with MOLM-14 xenograft tumor (25 mg/kg/d) and in the experiment with MOLM-14 xenograft tumor (50 mg/kg/day) were 45% and 78%, respectively. The “concentration from which auto-phosphorylation of FLT3-ITD at Y589/591 is affected” value in [3] is ≥ 5 µM. The “concentration from which phosphorylation of STAT5 and expression of c-MYC are inhibited” value in [3] was ≥ 0.5 µM.
